Assay results as given in article PMC9921896 (Molecules, 2023).

How the values were obtained:
CYP1A2 = target: T1, CYP1A2 (Homo sapiens, UniProt P05177); test: CYP inhibition assay in HLM, single concentration; type: biochemical; conditions: human liver microsomes, probe Phenacetin, n = 3, read-out: % Inhibition (CYP 1A2)
T1 construct: Using HLM as the enzyme source; from tissue; host or cells: human liver microsomes
T1 sequence (P05177 1-516): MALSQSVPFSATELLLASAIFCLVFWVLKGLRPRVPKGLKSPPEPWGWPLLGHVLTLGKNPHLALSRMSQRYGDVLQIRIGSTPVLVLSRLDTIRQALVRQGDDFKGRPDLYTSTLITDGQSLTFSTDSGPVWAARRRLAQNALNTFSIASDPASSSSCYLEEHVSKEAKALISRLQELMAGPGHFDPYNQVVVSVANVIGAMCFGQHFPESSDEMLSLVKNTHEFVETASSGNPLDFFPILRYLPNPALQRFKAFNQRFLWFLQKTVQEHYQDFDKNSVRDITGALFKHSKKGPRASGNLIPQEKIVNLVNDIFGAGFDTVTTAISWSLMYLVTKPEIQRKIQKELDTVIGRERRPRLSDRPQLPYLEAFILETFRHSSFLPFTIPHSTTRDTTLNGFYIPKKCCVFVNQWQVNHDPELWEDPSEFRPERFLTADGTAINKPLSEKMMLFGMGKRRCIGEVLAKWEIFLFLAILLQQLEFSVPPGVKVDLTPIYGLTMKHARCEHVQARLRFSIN
Experimental: (§1) The regulatory bodies and pharmaceutical firms are quite concerned about CYP inhibition. Therefore, medicinal chemists often change the lead structure to decrease CYP inhibition. If left uncorrected, it can cause DDIs, enhanced drug concentration, and, thus, toxicity.
(§2) Using HLM as the enzyme source, the CYP inhibition potential was employed to assess the inhibitory effect of the TbB ligands on the CYP1A2, 2B6, 2C8, 2C9, 2C19, and 2D6 3A4 isoforms. Phenacetin (CYP1A2, […]), tolbutamide (CYP2C9, 20 mM), bupropion (CYP2B6, […]), mephenytoin (CYP2C19, […]), midazolam (CYP3A4, 5 mM), amodiaquine (CYP2C8, 0.02 mM), and dextromethorphan (CYP2D6, 5 mM) were used as probe substrates. The test substance included TbB ligand (final concentrations of […] for each) and HLMs (final concentration of 0.1 mg protein per mL), with or without 1.0 mM NADPH. The reaction was started by adding pre-incubated 25 μ L of NADPH into all wells and incubate at 37 °C for 10 min for 3A4 and 20 min for remaining all isoforms. The reaction was stopped by adding 100 μ L of stop solution to all wells. The samples were centrifuged at 4000 rpm for 10 min at 4 °C. Supernatant (100 μ L) was withdrawn, mixed with 200 μ L of water followed by LC-MS/MS analysis.

CYP2C19 = target: T2, CYP2C19 (Homo sapiens, UniProt P33261); test: CYP inhibition assay in HLM, single concentration; type: biochemical; conditions: human liver microsomes, probe S-Mephenytoin, n = 3, read-out: % Inhibition (CYP 2C19)
T2 construct: Using HLM as the enzyme source; from tissue; host or cells: human liver microsomes
T2 sequence (P33261 whole entry): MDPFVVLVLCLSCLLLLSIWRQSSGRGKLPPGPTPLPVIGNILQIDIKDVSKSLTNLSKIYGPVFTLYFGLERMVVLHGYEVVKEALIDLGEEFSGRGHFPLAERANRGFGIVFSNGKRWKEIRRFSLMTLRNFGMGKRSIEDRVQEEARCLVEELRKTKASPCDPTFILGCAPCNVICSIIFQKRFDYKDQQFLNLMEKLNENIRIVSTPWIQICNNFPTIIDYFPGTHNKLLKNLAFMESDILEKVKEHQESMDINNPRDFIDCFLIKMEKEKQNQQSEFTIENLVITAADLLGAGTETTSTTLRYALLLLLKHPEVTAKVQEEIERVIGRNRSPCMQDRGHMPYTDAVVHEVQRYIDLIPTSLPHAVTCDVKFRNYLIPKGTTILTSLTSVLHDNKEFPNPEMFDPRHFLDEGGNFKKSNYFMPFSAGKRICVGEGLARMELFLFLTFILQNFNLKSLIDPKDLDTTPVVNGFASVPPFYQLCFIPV
Experimental: as §1, §2

CYP2C9 = target: T3, CYP2C9 (Homo sapiens, UniProt P11712); test: CYP inhibition assay in HLM, single concentration; type: biochemical; conditions: human liver microsomes, probe Tolbutamide, n = 3, read-out: % Inhibition (CYP 2C9)
T3 construct: Using HLM as the enzyme source; from tissue; host or cells: human liver microsomes
T3 sequence (P11712 whole entry): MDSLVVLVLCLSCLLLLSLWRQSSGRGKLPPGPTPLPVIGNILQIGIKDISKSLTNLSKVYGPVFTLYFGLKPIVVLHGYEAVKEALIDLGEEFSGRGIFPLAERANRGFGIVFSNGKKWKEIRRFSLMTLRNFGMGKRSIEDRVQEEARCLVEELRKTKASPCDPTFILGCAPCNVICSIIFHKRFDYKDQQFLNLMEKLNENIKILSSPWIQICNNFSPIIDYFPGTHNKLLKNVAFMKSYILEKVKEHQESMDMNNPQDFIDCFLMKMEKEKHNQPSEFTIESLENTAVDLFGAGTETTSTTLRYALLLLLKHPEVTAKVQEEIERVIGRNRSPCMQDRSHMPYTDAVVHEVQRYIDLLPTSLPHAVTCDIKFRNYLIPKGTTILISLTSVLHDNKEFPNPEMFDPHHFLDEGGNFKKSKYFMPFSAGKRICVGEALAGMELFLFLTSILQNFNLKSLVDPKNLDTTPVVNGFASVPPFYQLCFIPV
Experimental: as §1, §2

CYP2D6 = target: T4, CYP2D6 (Homo sapiens, UniProt P10635); test: CYP inhibition assay in HLM, single concentration; type: biochemical; conditions: human liver microsomes, probe Dextromethorphan, n = 3, read-out: % Inhibition (CYP 2D6)
T4 construct: Using HLM as the enzyme source; from tissue; host or cells: human liver microsomes
T4 sequence (P10635 whole entry): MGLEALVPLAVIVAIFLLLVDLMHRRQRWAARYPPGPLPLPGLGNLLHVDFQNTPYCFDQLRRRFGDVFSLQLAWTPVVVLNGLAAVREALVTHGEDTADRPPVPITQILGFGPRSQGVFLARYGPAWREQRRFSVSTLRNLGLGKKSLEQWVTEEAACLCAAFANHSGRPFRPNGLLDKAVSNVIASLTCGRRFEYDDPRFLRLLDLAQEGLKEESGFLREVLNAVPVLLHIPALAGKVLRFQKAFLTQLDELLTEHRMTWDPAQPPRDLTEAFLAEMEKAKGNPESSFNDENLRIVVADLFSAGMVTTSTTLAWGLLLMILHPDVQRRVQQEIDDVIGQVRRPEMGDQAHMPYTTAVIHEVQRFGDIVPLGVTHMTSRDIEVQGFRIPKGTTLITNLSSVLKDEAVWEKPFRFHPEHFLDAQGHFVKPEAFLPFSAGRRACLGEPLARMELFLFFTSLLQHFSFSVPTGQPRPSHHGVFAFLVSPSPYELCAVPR
Experimental: as §1, §2

CYP3A4 = target: T5, CYP3A4 (Homo sapiens, UniProt P08684); test: CYP inhibition assay in HLM, single concentration; type: biochemical; conditions: human liver microsomes, probe Midazolam, n = 3, read-out: % Inhibition (CYP 3A4)
T5 construct: Using HLM as the enzyme source; from tissue; host or cells: human liver microsomes
T5 sequence (P08684 whole entry): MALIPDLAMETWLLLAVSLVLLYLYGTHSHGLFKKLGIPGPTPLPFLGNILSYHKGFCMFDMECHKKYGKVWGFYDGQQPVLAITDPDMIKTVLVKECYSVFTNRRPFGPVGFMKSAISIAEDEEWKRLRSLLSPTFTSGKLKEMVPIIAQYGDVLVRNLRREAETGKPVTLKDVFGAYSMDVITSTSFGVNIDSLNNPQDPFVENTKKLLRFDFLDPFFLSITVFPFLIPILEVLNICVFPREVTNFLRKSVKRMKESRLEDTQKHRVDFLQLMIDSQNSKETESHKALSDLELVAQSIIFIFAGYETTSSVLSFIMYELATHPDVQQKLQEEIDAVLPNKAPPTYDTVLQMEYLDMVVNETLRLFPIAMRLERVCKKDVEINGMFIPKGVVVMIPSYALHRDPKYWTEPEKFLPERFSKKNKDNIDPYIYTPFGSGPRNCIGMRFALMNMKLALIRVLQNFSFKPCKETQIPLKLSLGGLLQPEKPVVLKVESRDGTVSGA
Experimental: as §1, §2

[1] = Substrate depletion assay in cryopreserved human hepatocytes (CPHH); type: in vitro ADME; conditions: pooled cryopreserved human hepatocytes; for half-life at 1 µM: pH 7.3, test conc. 1.0E-06 M (Table S4); for half-life / hepatocyte CLint: pH 7.3, test conc. 1×10^−6 M, n = 3
Experimental: Microsomal stability was determined for the TbB ligands by monitoring the presence of compound after incubation in CPHH and HLM, as shown in Figure 7 and Figure S18 of the Supporting Information. […] Such an observation with NCEs is common because, with HLM, NADPH is used as a cofactor, thereby focusing mainly on phase 1 oxidation pathways such as P450 metabolism. Although additional enzymes, such as UDP-glucuronosyltransferase (UGTs), are present in HLM, the lack of the associated necessary cofactors prevents them from being functionally active (e.g., uridine diphosphate glucuronic acid (UDPGA)). In contrast, all the three TbB ligands metabolized in cryopreserved hepatocytes (Figure 7). […] The reason could be that hepatocytes have all the necessary enzymes and cofactors for the metabolic processes. Since they contain the complete set of oxidative/reductive, hydrolytic, and conjugative drug metabolizing enzymes found in the liver, they are regarded as the gold standard. Therefore, they are preferred in vitro options for expressing metabolic stability as substrate depletion, total metabolic clearance, and T 1/2 [29].
From the plot shown in Figure S18 of the Supporting Information, it can be inferred that the TbB ligands undergo slow biotransformation in HLM. Such high metabolic stability may result in drug interactions leading to toxicity of the parent compound. On the contrary, TbB ligands are undergoing rapid biotransformation in CPHH (Figure 7), and this may lead to generation of metabolites that are either toxic, active, or nonactive. Metabolic stability is typically expressed by in vitro half-life T 1/2 and intrinsic clearance (CLint) terms. Intrinsic clearance (CLint) is measured using the substrate depletion method. It describes the maximum liver (microsomal proteins or hepatocytes) activity towards a compound not affected by other physiological factors such as hepatic blood flow and drug binding within the blood matrix. T 1/2 is used to express the time for the 50% disappearance of the parent compound. A possible explanation for the difference in metabolic stability might be that the TbB ligands bind to microsomes during incubation. This can result in decreased free TbB ligand levels available to interact with metabolizing enzymes, reducing apparent intrinsic clearance values.
The test compound stability in a pooled human cryopreserved hepatocytes was tested after thawing, washing, and resuspending the cryopreserved hepatocytes in Krebs–Heinslet buffer (pH 7.3). The onset of reaction happens by the addition of the test compound into cell suspension and incubated for 0, […], 1, 1.5, and 2 h, respectively, at 37 °C/5% CO 2 . The reaction is terminated in the incubation mixture by the addition of acetonitrile. After thorough sample mixing, the sample was completely transferred to another 96-well plate and centrifuged, followed by HPLC-MS/MS analysis of supernatant. Four compounds as reference, namely, propranolol, a relatively stable and readily metabolizing flurazepam, naloxone, and HFC (7-hydroxy-4-trifluoromethyl-coumarin) in human hepatocytes were included in each assay. Data analysis was performed as mentioned above and the intrinsic clearance (CLint) is calculated from the half-life using the following equation. CLint(μL/min/millioncells)=0.693/T1/2×CellDensity.

Row | inhibition at 20 min, 10 µM (CYP1A2) [%] | inhibition at 20 min, 10 µM (CYP2C19) [%] | inhibition at 20 min, 10 µM (CYP2C9) [%] | inhibition at 20 min, 10 µM (CYP2D6) [%] | inhibition at 10 min, 10 µM (CYP3A4) [%] | half-life at 1 µM [1] [min] | half-life [1] [min] | hepatocyte CLint [1] [µL/min/1e6 cells] | SMILES
1 | 33 | -2 | 68 | -2 | -6 | 33 | 33 | 29.8 | COc1cc(-c2nnn(-c3cc(OC)c(O)c(OC)c3)n2)cc(OC)c1O [223-2]
2 | 40 | 84 | 82 | 96 | 96 | 54 | 54 | 18.4 | Cc1cc(-c2nnn(-c3cc(C)c(O)c(C)c3)n2)cc(C)c1O [223-3]
3 | 30 | 33 | 90 | -4 | 22 | 36 | 36 | 27.8 | Oc1ccc(-c2nnn(-c3ccc(O)cc3)n2)cc1 [223-10]
